Patent US20230022796A1 (Merck Patent GmbH, priority 2019, published 2023)

Assays:
Assay type in all cases: cell-based, Chinese hamster
[1] = tested on: CHO cell line producing mAb2; assay: Glycosylation profile (UPLC-MS of released glycans) of mAb2 from fed-batch; conditions: mAb2, 400 μM additive, day 12
Description: (§1) Glycosylation patterns were analyzed by ultra-performance liquid chromatography coupled to a mass spectrometer (UPLC-MS). The purified antibody was denaturated and the glycans were released from the antibody by digestion with peptide N-glycosidase F (PNGase F) followed by labeling the glycans with the GlycoWorks™ RapiFluor-MS™ N-Glycan Kit according to the manufacturer protocol. For the analysis, an UPLC glycan column (2.1×150 mm) that separated the glycans according to their […] was used. The chromatography was performed at 45° C. using 50 mM ammonium formate (A), pH 4.4 solution and an acetonitrile (B) gradient. In detail, at the beginning the ratio of A:B was 20:80 (0 min) and changed to 27:73 at 3 min and 37:63 at 35 min at a flow rate of 0.5 ml/min. From 36.5 min to 39.5 min only A was used as mobile phase and the flow rate was reduced to 0.2 ml/min. Subsequently, the ratio was changed to 20% A:80% B and the flowrate was increased to 0.5 ml/min at 43.1 min until the end of the process at 55 min. The detection was performed by a fluorescence detector with an excitation wavelength of 265 nm and an emission wavelength of 425 nm. The identification of the glycan structures was performed by MS using positive electro spray ionization (ESI), which was calibrated every 30 s with a standard.
(§2) Four different clones of Chinese hamster ovary (CHO) cells expressing three different monoclonal antibodies (mAb) and a fusion protein were tested. Cells were cultivated in spin tubes between 14 and 20 days at 37° C., 5% CO2, and 80% humidity. As starting cell density, 3×10^5 cells/mL in 30 mL Cellvento®4CHO media (pH 7.0±0.1) was used for clone 1 and 2 producing mAb1 and mAb2, respectively (Cellvento® Platform). Cells were cultivated at an agitation of 320 rpm and were fed on day 3, 5, 10, 12 and 14 with 3% volume of Cellvento® 4Feed (v/v) and on day 7 with 6% (v/v) of the feed. Clone 3 and 4 producing mAb3 and a fusion protein were inoculated at the same cell density in 30 mL Ex-Cell® Advanced Media (pH 7.2±0.1) while agitation was set to 230 rpm (Ex-Cell® Platform). Clones 3 and 4 were fed with […] Advanced Feed (v/v) on day 3, 5, 7, 10, 12, 14 and 17. […] The pH of all Cellvento® feeds was adjusted to 7.0±0.1 and Ex-Cell® Feeds were adjusted to 8.5±0.1. The glucose level was maintained above 4 g/L by adding a specific amount of a 400 g/L glucose stock solution on demand to up to 6 g/L during the week and up to 13 g/L over the weekend. Glucose and titer were detected in the supernatant with the bioprocess analyzer CEDEX Bio HT (Roche, Mannheim, Germany).
(§3) To investigate the glycosylation profile during the fed-batch experiment samples were centrifugated and antibodies and Fc-fusion proteins were purified from the cell culture supernatant using protein A PhyTips® (PhyNexus Inc, San Jose, Calif.). Glycosylation patterns were analyzed as described by ultra-performance liquid chromatography coupled to a mass spectrometer (UPLC-MS) using the GlycoWorks™ RapiFluor-MS™ N-Glycan Kit.
Glycosylation profile on day 12 was visualized since harvest of recombinant produced proteins on day 12 is common. Quantification of the glycans was obtained using the relative peak area of the fluorescence signal. Almost all peaks were assigned to glycan structures according to their mass. Unknown glycan structures and signals without mass detection were summarized as unknown species (not shown). […]

[2] = tested on: CHO cell line producing mAb3; assay: Glycosylation profile (UPLC-MS of released glycans) of mAb3 from fed-batch
Description: as §1, §2, §3
Glycosylation profile on day 12 was visualized since harvest of recombinant produced proteins on day 12 is common. Quantification of the glycans was obtained using the relative peak area of the fluorescence signal. Almost all peaks were assigned to glycan structures according to their mass. Unknown glycan structures and signals without mass detection were summarized as unknown species (not shown). Four different clones of Chinese hamster ovary (CHO) cells expressing three different monoclonal antibodies (mAb) and a fusion protein were tested. […] The known positive control achieved a […] level on day 12 by increasing the afucosylation to 78%. The same amount of afucosylation compared to the known fucose-analogue acetylated 2F-Fucose was only achieved by clone 3 expressing mAb3 leading to about […] on day 12 (FIG. 8 C). […]

[3] = tested on: CHO cell line producing a fusion protein; assay: Glycosylation profile (UPLC-MS of released glycans) of fusion protein from fed-batch; conditions: 400 μM additive, day 12
Description: as §1, §2, §3
Glycosylation profile on day 12 was visualized since harvest of recombinant produced proteins on day 12 is common. Quantification of the glycans was obtained using the relative peak area of the fluorescence signal. Almost all peaks were assigned to glycan structures according to their mass. Unknown glycan structures and signals without mass detection were summarized as unknown species (not shown). Four different clones of Chinese hamster ovary (CHO) cells expressing three different monoclonal antibodies (mAb) and a fusion protein were tested. […] The known positive control achieved a 14% fucosylation level on day 12 by increasing the afucosylation to 78%. The same amount of afucosylation compared to the known fucose-analogue acetylated 2F-Fucose was only achieved by clone 3 expressing mAb3 leading to about 34% afucosylation on day 12 (FIG. 8 C).

[4] = mAb3, 400 μM additive, day 12, listed as ThioFuc
[5] = mAb3, 800 μM additive, day 12, listed as ThioFuc

Structure (SMILES): C[C@@H]1SC(O)[C@@H](O)[C@H](O)[C@@H]1O (stereo partly shown)
- afucosylation [1]: 60%
- core-fucosylation [1]: 8%
- % Afucosylated ([2]; mAb3, 50 μM additive, day 5): 17.7%
- % Fucosylated ([2]; mAb3, 50 μM additive, day 5): 81.4%
- % fucose analogue (incorporated) ([2]; mAb3, 50 μM additive, day 5): 0.38%
- % Afucosylated ([2]; mAb3, 50 μM additive, day 12): 16.0%
- % Fucosylated ([2]; mAb3, 50 μM additive, day 12): 72.5%
- % fucose analogue (incorporated) ([2]; mAb3, 50 μM additive, day 12): ~11%
- % fucose analogue (incorporated) ([2]; mAb3, 50 μM additive, day 12, listed as ThioFuc): 10.7%
- % Afucosylated ([2]; mAb3, 50 μM additive, day 14): 16.1%
- % Fucosylated ([2]; mAb3, 50 μM additive, day 14): 69.9%
- % fucose analogue (incorporated) ([2]; mAb3, 50 μM additive, day 14): 13.6%
- % Afucosylated ([2]; mAb3, 200 μM additive, day 5): 22.1%
- % Fucosylated ([2]; mAb3, 200 μM additive, day 5): 62.9%
- % fucose analogue (incorporated) ([2]; mAb3, 200 μM additive, day 5): 14.5%
- % Afucosylated ([2]; mAb3, 200 μM additive, day 12): 30.1%
- % Fucosylated ([2]; mAb3, 200 μM additive, day 12): 33.3%
- % fucose analogue (incorporated) ([2]; mAb3, 200 μM additive, day 12): ~36%
- % fucose analogue (incorporated) ([2]; mAb3, 200 μM additive, day 12, listed as ThioFuc): 35.9%
- % Afucosylated ([2]; mAb3, 200 μM additive, day 14): 32.1%
- % Fucosylated ([2]; mAb3, 200 μM additive, day 14): 28.6%
- % fucose analogue (incorporated) ([2]; mAb3, 200 μM additive, day 14): 39.1%
- % Afucosylated ([2]; mAb3, 400 μM additive, day 5): 28.7%
- % Fucosylated ([2]; mAb3, 400 μM additive, day 5): about 48%
- % fucose analogue (incorporated) ([2]; mAb3, 400 μM additive, day 5): 26.5%
- % Fucosylated ([2]; mAb3, 400 μM additive, day 5, listed as ThioFuc): 46.4%
- fucosylation level ([2]; mAb3, 400 μM additive, day 7): about 34%
- fucosylation level ([2]; mAb3, 400 μM additive, day 10): ~25%
- % Fucosylated ([2]; mAb3, 400 μM additive, day 12): 21%
- % Afucosylated [2, 4]: 34.8%
- % Fucosylated [2, 4]: 20.9%
- % fucose analogue (incorporated) [2, 4]: 44.1%
- % Afucosylated ([2]; mAb3, 400 μM additive, day 14): 36.0%
- % Fucosylated ([2]; mAb3, 400 μM additive, day 14): ~18%
- % fucose analogue (incorporated) ([2]; mAb3, 400 μM additive, day 14): 46.2%
- % Fucosylated ([2]; mAb3, 400 μM additive, day 14, listed as ThioFuc): 17.7%
- % Afucosylated ([2]; mAb3, 800 μM additive, day 5): 32.3%
- % Fucosylated ([2]; mAb3, 800 μM additive, day 5): 40.4%
- % fucose analogue (incorporated) ([2]; mAb3, 800 μM additive, day 5): 31.7%
- % Afucosylated ([2]; mAb3, 800 μM additive, day 12): about 36%
- % Fucosylated ([2]; mAb3, 800 μM additive, day 12): about 15%
- % fucose analogue (incorporated) ([2]; mAb3, 800 μM additive, day 12): about 48%
- reduction of fucosylation compared to the control ([2]; mAb3, 800 μM additive, day 12): about 75%
- % Afucosylated [2, 5]: 36.4%
- % Fucosylated [2, 5]: 15.4%
- % fucose analogue (incorporated) [2, 5]: 47.8%
- % Afucosylated ([2]; mAb3, 800 μM additive, day 14): 38.0%
- % Fucosylated ([2]; mAb3, 800 μM additive, day 14): 12.5%
- % fucose analogue (incorporated) ([2]; mAb3, 800 μM additive, day 14): 49.3%
- afucosylation [3]: 52%
- incorporation of fucose analogue (% of the glycans) [3]: 39%
- reduction of core-fucosylation compared to the control [3]: about 63%
